Measured values taken from patent US9388149B2, “Disubstituted 3,4-diamino-3-cyclobutene-1,2-dione compounds for use in the treatment of chemokine-mediated diseases” (GALDERMA RESEARCH & DEVELOPMENT, priority 2011, dated 2016).

How the values were obtained:
CXCR2 receptor = CXCR2 receptor (Homo sapiens (Human), UniProt P25025); experiment: β-arrestin recruitment test, PathHunter HEK293-CXCR2 cells stimulated with CXCL8; type: cell-based; conditions: inhibition of CXCL8 (10 nM) induced β-arrestin 2 recruitment; *9999 signifies not active
Description: (§1) The in vitro affinity of the compounds of the present invention for the CXCR1 and CXCR2 receptors was determined on a functional test of the β-arrestin recruitment after receptor activation type.
(§2) β-Arrestin recruitment test: “PathHunter HEK293-CXCR2” or “U2OS hCXCR1 β-arrestin” cells (DiscoveRx Corporation) were seeded overnight at 10 000 cells/well (384-well format) in 20 μl of Opti MEM I medium. A preincubation with the antagonist or the vehicle for 30 min at 37° C. and 5% CO2 was followed by 60 minutes of stimulation with CXCL8 at 37° C. and 5% CO2. The cells were then placed at ambient temperature for 30 minutes. The PathHunter detection reagent (DiscoveRx Corporation) was added. […] The data were analyzed by means of a non-linear curve procedure using the XLFit4 exploitation software (IDBS) and the IC50 values were determined.

CCR6 = CCR6 (Homo sapiens (Human), UniProt P51684); experiment: Calcium flux on Chem-1 cells expressing the chemokine receptor (FLIPR TETRA), antagonist mode; type: cell-based; conditions: antagonist activity, reference agonist at AC80
Description: (§3) Measurement of calcium flux on cells: The experiments were carried out on the FLIPR TETRA® platform from Molecular Devices.
(§4) Each cell line expressing a chemokine receptor was established on the basis of the Chem-1 cell stably expressing the recombinant form of the chemokine receptor and also an associated G protein, with the aim of coupling the receptor to the calcium signalling pathway.
(§5) 21 receptors belonging to the chemokine receptor family (CCRs and CXCRs) were analyzed.

[1] = Metabolic stabilities in hepatocytes; type: in vitro ADME; conditions: compound 1 μM, sampling up to 24 hours; for half-life at 1 μM: human, hepatocytes, read-out: Half-life time
Description: The human hepatocytes were supplied by Biopredic in 24-well plates.
The samples of incubation medium after addition of the test compound were taken at times t=0, 1, 2, 4, 6 and 24 hours.

[2] = Metabolic stabilities in hepatic microsomes; conditions: hepatic microsomes, pH 7.4, Half-life time (min), hepatic microsomes 0.5 mg/ml protein, compound 1 μM, sampling up to 60 minutes
Description: Hepatic microsomes (Becton Dickinson) were incubated at a protein concentration of 0.5 mg/ml in the reaction medium.
The reaction medium of the microsomes was composed of phosphate buffer, pH: 7.4 at 100 mM, of MgCl2 at 100 mM (50/50), of an ATP-generating system composed of a mixture of nicotinamide adenine diphosphate (NADP), of glucose-6-phosphate (G6P) at 1 mg/ml and of glucose-6-phosphate dehydrogenase (G6PDH) at 4 U/ml. The compounds were tested at 1 μM (0.1% DMSO).
The samples of incubation medium after addition of the microsomes were taken at times 5, 10, 15, 30 and 60 minutes. At each time, the metabolic reaction was stopped by adding methanol (1 volume incubation medium/3 volumes of methanol). The disappearance of the parent product was measured by LC/MS/MS analysis. The time for which 50% of parent product disappeared (T1/2) was calculated from the kinetics of disappearance of the parent product as a function of time.

CXCR3 = CXCR3 (Homo sapiens (Human), UniProt P49682); experiment: Calcium flux on Chem-1 cells expressing the chemokine receptor (FLIPR TETRA), antagonist mode; conditions: IC50 CXCR3, antagonist activity, reference agonist at AC80
Description: as §3, §4, §5

CCR8 = CCR8 (Homo sapiens (Human), UniProt P51685); experiment: as above; type: cell-based; conditions: antagonist activity, reference agonist at AC80
Description: as §3, §4, §5

FPR1 = FPR1 (Homo sapiens (Human), UniProt P21462); experiment: Calcium flux on Chem-1 cells expressing the receptor (FLIPR TETRA), antagonist mode; type: cell-based; conditions: antagonist activity, reference agonist at AC80
Description: as §3, §4

CCR7 = CCR7 (Homo sapiens (Human), UniProt P32248); experiment: Calcium flux on Chem-1 cells expressing the chemokine receptor (FLIPR TETRA), antagonist mode; type: cell-based; conditions: antagonist activity, reference agonist at AC80
Description: as §3, §4, §5

CCR4 = CCR4 (Homo sapiens (Human), UniProt P51679); experiment: as above
Description: as §3, §4, §5

CXCR1 receptor = CXCR1 receptor (Homo sapiens (Human), UniProt P25024); experiment: β-arrestin recruitment test, U2OS hCXCR1 β-arrestin cells stimulated with CXCL8; type: cell-based; conditions: inhibition of CXCL8 (10 nM) induced β-arrestin 2 recruitment; *9999 signifies not active
Description: as §1, §2

[3] = system: receptors of CXCR1 and CXCR2 type; conditions: pseudo-irreversible dissociation, literature value; cited from earlier work
[4] = system: panel of 20 chemokine receptors; experiment: Receptor profiling on a panel of 20 chemokine receptors (calcium flux); conditions: result in words
Description: as §3, §4

CCR4, sequence (P51679 whole entry): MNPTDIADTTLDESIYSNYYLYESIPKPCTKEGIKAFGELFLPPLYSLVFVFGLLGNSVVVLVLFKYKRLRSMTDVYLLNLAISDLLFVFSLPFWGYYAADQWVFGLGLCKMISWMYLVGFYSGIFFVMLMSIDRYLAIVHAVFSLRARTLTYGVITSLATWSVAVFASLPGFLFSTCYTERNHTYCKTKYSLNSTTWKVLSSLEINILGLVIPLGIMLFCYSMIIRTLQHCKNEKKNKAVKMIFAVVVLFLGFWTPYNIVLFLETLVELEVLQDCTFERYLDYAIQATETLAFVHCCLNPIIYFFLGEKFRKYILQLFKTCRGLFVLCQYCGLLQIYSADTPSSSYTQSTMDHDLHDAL
CCR6, sequence (P51684 whole entry): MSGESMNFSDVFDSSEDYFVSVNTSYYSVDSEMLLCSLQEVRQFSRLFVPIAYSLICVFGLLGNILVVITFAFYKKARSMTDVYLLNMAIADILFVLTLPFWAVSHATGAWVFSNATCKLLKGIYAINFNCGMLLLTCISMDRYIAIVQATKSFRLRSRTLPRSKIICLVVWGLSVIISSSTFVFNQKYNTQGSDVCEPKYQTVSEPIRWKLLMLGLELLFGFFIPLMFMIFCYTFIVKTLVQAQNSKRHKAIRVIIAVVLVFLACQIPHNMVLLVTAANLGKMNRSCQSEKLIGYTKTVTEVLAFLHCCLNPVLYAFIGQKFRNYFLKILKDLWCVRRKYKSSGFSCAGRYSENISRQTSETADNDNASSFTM
CXCR2 receptor, sequence (P25025 whole entry): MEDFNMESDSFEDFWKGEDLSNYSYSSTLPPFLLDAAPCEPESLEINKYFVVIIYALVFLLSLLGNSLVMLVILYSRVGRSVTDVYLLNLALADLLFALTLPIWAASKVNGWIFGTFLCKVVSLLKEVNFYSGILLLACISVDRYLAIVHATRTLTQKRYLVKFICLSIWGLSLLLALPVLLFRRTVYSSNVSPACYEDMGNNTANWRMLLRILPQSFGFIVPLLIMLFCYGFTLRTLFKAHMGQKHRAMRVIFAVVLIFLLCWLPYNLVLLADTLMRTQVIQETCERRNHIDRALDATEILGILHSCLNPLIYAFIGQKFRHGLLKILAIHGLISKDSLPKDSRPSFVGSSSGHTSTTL
CXCR3, sequence (P49682 whole entry): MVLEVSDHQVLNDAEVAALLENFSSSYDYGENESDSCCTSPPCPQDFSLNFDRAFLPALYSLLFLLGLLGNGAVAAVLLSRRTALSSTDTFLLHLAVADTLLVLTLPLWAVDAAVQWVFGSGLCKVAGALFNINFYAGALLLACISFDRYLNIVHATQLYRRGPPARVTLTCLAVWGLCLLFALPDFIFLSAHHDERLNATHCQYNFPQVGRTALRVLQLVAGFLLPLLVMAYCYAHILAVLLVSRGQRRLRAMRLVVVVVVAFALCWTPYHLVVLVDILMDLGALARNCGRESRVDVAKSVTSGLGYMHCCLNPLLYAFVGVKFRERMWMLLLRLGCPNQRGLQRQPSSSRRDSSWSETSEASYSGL
CXCR1 receptor, sequence (P25024 whole entry): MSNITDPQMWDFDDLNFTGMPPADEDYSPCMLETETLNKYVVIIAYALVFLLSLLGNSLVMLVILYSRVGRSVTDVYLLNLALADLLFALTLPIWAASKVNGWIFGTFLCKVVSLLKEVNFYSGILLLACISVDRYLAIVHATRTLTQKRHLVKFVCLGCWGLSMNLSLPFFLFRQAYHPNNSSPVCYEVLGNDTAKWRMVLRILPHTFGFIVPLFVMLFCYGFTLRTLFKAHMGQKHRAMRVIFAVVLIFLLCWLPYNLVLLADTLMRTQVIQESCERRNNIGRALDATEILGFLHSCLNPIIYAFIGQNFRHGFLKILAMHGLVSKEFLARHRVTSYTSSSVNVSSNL
FPR1, sequence (P21462 whole entry): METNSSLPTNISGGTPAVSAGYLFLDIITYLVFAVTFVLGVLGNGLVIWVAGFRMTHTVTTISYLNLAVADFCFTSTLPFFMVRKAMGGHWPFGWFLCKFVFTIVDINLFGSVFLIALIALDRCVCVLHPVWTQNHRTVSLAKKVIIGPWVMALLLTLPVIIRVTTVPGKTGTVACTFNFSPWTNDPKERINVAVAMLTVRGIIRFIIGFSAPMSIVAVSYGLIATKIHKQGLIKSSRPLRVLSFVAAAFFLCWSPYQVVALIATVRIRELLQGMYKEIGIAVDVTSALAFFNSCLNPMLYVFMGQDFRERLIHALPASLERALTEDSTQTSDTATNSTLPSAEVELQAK
CCR8, sequence (P51685 whole entry): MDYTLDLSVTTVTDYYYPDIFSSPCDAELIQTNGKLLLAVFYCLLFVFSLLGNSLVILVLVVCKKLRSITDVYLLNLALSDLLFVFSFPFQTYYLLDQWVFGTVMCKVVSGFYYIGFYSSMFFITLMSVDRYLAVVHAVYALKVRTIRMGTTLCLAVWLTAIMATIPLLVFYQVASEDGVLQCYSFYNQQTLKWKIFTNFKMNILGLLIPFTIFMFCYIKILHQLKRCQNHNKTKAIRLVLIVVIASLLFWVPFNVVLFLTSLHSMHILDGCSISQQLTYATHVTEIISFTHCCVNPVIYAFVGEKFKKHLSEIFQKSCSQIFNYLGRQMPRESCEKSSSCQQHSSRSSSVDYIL
CCR7, sequence (P32248 25-378): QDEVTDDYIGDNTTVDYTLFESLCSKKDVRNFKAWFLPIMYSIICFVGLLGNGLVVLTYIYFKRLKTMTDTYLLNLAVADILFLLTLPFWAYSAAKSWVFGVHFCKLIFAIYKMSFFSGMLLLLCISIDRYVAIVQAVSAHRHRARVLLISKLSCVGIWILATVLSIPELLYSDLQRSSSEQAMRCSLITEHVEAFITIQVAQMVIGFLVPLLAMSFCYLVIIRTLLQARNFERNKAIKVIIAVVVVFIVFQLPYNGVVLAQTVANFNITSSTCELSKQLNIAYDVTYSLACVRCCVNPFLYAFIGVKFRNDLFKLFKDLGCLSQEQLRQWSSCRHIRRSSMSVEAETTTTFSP

In the case of Cc1ccc(C(Nc2c(Nc3cccc(C(=O)N(C)C)c3O)c(=O)c2=O)C2(C)CCCO2)o1 (single isomer, unassigned) [1 (diastereoisomer 2), 2-hydroxy-N,N-dimethyl-3-(2-{[(5-methylfuran-2-yl)-(2-methyltetrahydrofuran-2-yl)methyl]amino}-3,4-dioxo-cyclobut-1-enylamino)benzamide], the IC50 (CXCR2 receptor) is reported as 94 nM, the IC50 (CCR6) is reported as 2.2 nM and the “Half-life time” value ([1]; human hepatocytes) is reported as 539 min. It also gave a half-life at 1 μM [2] of 27 min and an IC50 (CXCR3) of 55 nM.
Work on Cc1ccc(C(Nc2c(Nc3cccc(C(=O)N(C)C)c3O)c(=O)c2=O)C2CCCS2)o1 (single isomer, unassigned) [2 (diastereoisomer 2), 2-Hydroxy-N,N-dimethyl-3-(2-{[(5-methylfuran-2-yl)-(tetrahydrothiophen-2-yl)methyl]amino}-3,4-dioxo-cyclobut-1-enylamino)benzamide] yielded an IC50 (CXCR2 receptor) of 35 nM, an IC50 (CCR8) of 620 nM and an IC50 (FPR1) of 6500 nM. The half-life at 1 μM [2] was 11 min.
Work on Cc1ccc(C(Nc2c(Nc3cccc(C(=O)N(C)C)c3O)c(=O)c2=O)C2(C)CCCO2)o1 (single isomer, unassigned) [Example 1 (Enantiomer 2 of diastereoisomer 2), 2-Hydroxy-N,N-dimethyl-3-(2-{[(5-methylfuran-2-yl)-(2-methyltetrahydrofuran-2-yl)methyl]amino}-3,4-dioxo-cyclobut-1-enylamino)benzamide] yielded an IC50 (CXCR2 receptor) of 53 nM, an IC50 (CCR6) of 2 nM and an IC50 (CCR7) of 8700 nM. For the same compound, the half-life at 1 μM [1] was 300 min, the IC50 (CCR4) was 410 nM and the IC50 (CXCR3) was 1.3 nM.
In the case of COC(=O)CN(C)C(=O)c1cccc(Nc2c(N[C@@H](c3ccc(C)o3)C3CCCS3)c(=O)c2=O)c1O (single isomer, unassigned) [Example 19], the IC50 (CXCR1 receptor) is reported as 42 nM, the IC50 (CXCR2 receptor) is reported as 20 nM and the IC50 (CCR6) is reported as 11 nM. The half-life at 1 μM [1] was 214 min, the half-life at 1 μM [2] was 8 min and the IC50 (CCR4) was 8.1 nM. The IC50 (CXCR3) was 510 nM.
Cc1ccc(C(Nc2c(Nc3ccc(Cl)c(S(=O)(=O)N4CCN(C)CC4)c3O)c(=O)c2=O)C2CCCS2)o1 (single isomer, unassigned; (-)) [Example 22, (−)-3-[4-chloro-2-hydroxy-3-(4-methylpiperazine-1-sulfonyl)phenylamino]-4-{[(5-methylfuran-2-yl)-(tetrahydrothiophen-2-yl)methyl]amino}cyclobut-3-ene-1,2-dione] showed an IC50 (CXCR1 receptor) of 30 nM, an IC50 (CXCR2 receptor) of 17 nM and a half-life at 1 μM [1] of 49 min. The half-life at 1 μM [2] was 7 min, the IC50 (CCR4) was 9.4 nM and the IC50 (CXCR3) was 150 nM.
In the case of CC[C@@H](Nc1c(Nc2cccc(C(=O)N(C)C)c2O)c(=O)c1=O)c1ccc(C)o1 [SCH-527123], the dissociation time [3] is given as “about 22 h” and the “activity on the chemokine receptors of the panel (CCR4, CCR6, CCR7, CCR8, CXCR3, FPR1)” value [4] is given as “inactive or not very active at all”.
